According to patent publication US20080145858A1, “DETECTION AND IDENTIFICATION OF TOXICANTS BY MEASUREMENT OF GENE […]” (priority 2003, published 2008):

Test system: Xenopus laevis embryos
Assay: Embryonic morphology after PMA treatment
Assay type: in vivo
Details: added 21 hours after fertilization, 18° C. for 30 hours; untreated showed typical neurula
Method: Embryos were sorted for successful cleavage to 2 cells (1.5 hours after fertilization), split into groups for subsequent treatment (triplicate treatments per each experimental group) and visually monitored for normal embryonic morphology. Rates of abnormal morphology were recorded for each group. Embryos at stage 8 were obtained after incubation of the fertilized embryos at 23° C. for 5 hours. PMA (100 ng/ml) or DMSO (0.01%, solvent used to dissolve PMA) was added to the embryos 2 hours after fertilization. […] Embryos at stage 15 were obtained after incubation of the fertilized embryos at 18° C. for 30 hours (the condition produced stage 15 embryos identical to embryos obtained at 23° C. for 10 hours). PMA or DMSO was added to the embryos 21 hours after fertilization.

CCCCCCCCCCCCCC(=O)O[C@@H]1[C@@H](C)[C@@]2(O)[C@@H](C=C(CO)C[C@@]3(O)C(=O)C(C)=C[C@@H]23)[C@@H]2C(C)(C)[C@]12OC(C)=O [4 alpha-PMA]
embryo morphology / developmental stage reached: typical neurula morphology
